According to patent US7217723B2, “Heterocyclic compound having oxime group” (Eisai Co., Ltd., priority 2004, dated 2007):

target: STAT6 activation; assay: STAT6 activation inhibition test (IL-4-induced alkaline phosphatase STAT6 reporter gene assay); assay type: cell-based, human; details: concentration giving 50% suppression of alkaline phosphatase activity induced by IL-4 (1 ng/mL), 16 hours; 293 cells stably expressing STAT6 gene and STAT6 reporter gene
Method: The inhibitory activity on STAT6 activation of the compound according to present invention was evaluated according to the following test.
1) Construction of the STAT6 Reporter Gene
The oligonucleotide of SEQ ID: 1 resuting from three STAT6 binding regions of the human immunoglobulin germline ε gene promoter linked togeter, and the complementary strand thereof were mixed, and after thermal denaturation and annealing, the 5′ and the 3′ ends were respectively cut with the restriction enzymes Kpn I (TaKaRa Shuzo Code No. 1068A) and Xba I (TaKaRa ShuzoCode No. 1093A), and the resulting fragment was cloned into the Kpn I/Xba I site of the pUG-BGH-PLAP vector (described in Molecular Pharmacology, 49: 860–873 1996). In addition, the TK promoter region of the herpesvirus for inducing general transcription factors was cloned into the Xba I/Hind III (TaKaRa ShuzoCode No. 1060A) site of the pUG-BGH-PLAP vector. Then, to collect a stable expression cell strain, the neomycin resistance gene, that is a PGK-neo expression cassette, was incorporated into the Sal I (TaKaRa Shuzo, Code No. 1080A) site of this vector. Cloning of the TK promoter and the PGK-neo expression cassette was carried out according to Molecular Pharmacology, 49: 860–873 1996.
2) Construction of the STAT6 Expression Vector
Using the oligonucleotide of SEQ ID: 2 containing the initiation codon of the STAT6 gene and the oligonucleotide of SEQ ID: 3 containing the stop codon, Total RNA was prepared from human peripheral blood cells with the RNeasy Mini kit (OIAGEN, Code No. 74104). Thereafter, a reverse transcription reaction was carried out with the Takara RNA LA PCR kit (TaKaRa Shuzo, Code No. RR012A) to prepare cDNA, and using the primers of SEQ ID: 2 and 3, a PCR reaction was carried out, to amplify the STAT6 gene.
PCR product was digested with EcoR I (TaKaRa Shuzo, Code No. 1040A) and Xho I (TaKaRa Shuzo, 1094A), thereafter, the digested fragment was isolated on an agarose gel. The isolated fragment was incorporated into the vector fragment derived from the EcoR I/Xho I digestion of the pcDNA3.1 (+) (invtrogen, Code No. U790-20) vector.
3) Transformation and Preparation of a Stable Expression Cell Strain
In a Falcon 6-well plate for tissue culture (Becton Dickinson, Code No. 35-3046), 3.0×10^5 of 293 cells derived from human embryo kidney (American Type Culture Collection) were distributed and cultured overnight. The STAT6 reporter gene (1.5 μg), the STAT6 gene (1.5 μg) that were prepared and lipofectamine (GIBCO BRL, Code No. 18324-012) (20 μL) were mixed in OPTI-MEM culture medium (GIBCO BRL, Code No. 31985-070) (0.3 mL), and allowed to stand at room temperature for 20 minutes. Thereafter, the OPTI-MEM culture medium (1.2 mL) was further added, OPTI-MEM culture medium not containing fetal calf serum was added to washed cells, which were cultured for 2 hours. A culture medium (1.5 mL) containing fetal calf serum was added, and the cells were cultured for 19 more hours. The culture was continued by exchanging the culture medium and adding Geneticin (SIGMA, Code No. G-5013) so as to obtain 1 mg/mL, and cells with drug tolerance were selected. The selected drug tolerant cells were suspended in a culture medium containing 1 mg/mL of Geneticin, and distributed in a 96-well microplate (Becton Dickinson, Code No. 35-3072) so as to obtain 0.5 cells/well to carrry out cloning, and the clones expressing alkaline phosphatase in response to IL-4 were collected.
4) STAT6 Activation Inhibition Test
Cells stably expressing the STAT6 gene and the STAT6 reporter gene, and expressing alkaline phosphatase in response to IL-4 were distributed in a 96-well microplate (Becton Dickinson, Code No. 35-3072) so as to obtain 5000 cells/180 μL/well, and cultured overnight. […]

Row | Molecule | IC50 [nM]
1 | CN(CCc1ccc(F)cc1)S(=O)(=O)c1csc2c1CCC/C2=N/O [Example 3, (7Z)-7-Hydroxyimino-4,5,6,7-tetrahydro-benzo[b]thiophene-3-sulfonic acid[2-(4-fluorophenyl)-ethyl]-methyl-amide] | 0.6
2 | CN(CC(O)c1ccc(F)cc1)S(=O)(=O)c1csc2c1CCC/C2=N/O (centres unmarked) [Example 1, (7Z)-7-Hydroxyimino-4,5,6,7-tetrahydro-benzo[b]thiophene-3-sulfonic acid[2-(4-fluorophenyl)-2-hydroxyethyl]-methyl-amide] | 1.13
3 | CN(CCc1ccc(F)cc1)C(=O)c1csc2c1CCC/C2=N/O [Example 124, (7Z)-7-Hydroxyimino-4,5,6,7-tetrahydrobenzo[b]thiophene-3-carboxylic acid[2-(4-fluorophenyl)ethyl]-methyl-amide] | 0.15
4 | CN(CC(O)c1ccc(F)cc1F)S(=O)(=O)c1csc2c1CCC/C2=N/O (centres unmarked) [Example 17, (7Z)-7-Hydroxyimino-4,5,6,7-tetrahydro-benzo[b]thiophene-3-sulfonic acid[2-(2,4-difluorophenyl)-2-hydroxyethyl]-methyl-amide] | 15.4
5 | (7Z)-N-{1-(4-Fluorophenyl)-2-[(7-hydroxyimino-4,5,6,7-tetrahydrobe nzo[b]-thiophene-3-sulfonyl)methylamino]ethyl}acetamide [Example 23] | 9.5
6 | CCc1cccc(NC(=O)O/N=C2/CCCc3c(S(=O)(=O)N(C)CC(O)c4ccc(F)cc4)csc32)c1 (centres unmarked) [Example 66, (7Z)-7-({[(3-Ethylanilino)carbonyl]oxo}imino)-3-{[[2-(4-fluorophenyl)-2-hydroxyethyl](methyl)amino]sulfonyl}-4,5,6,7-tetrahydro-1-benzothiophene] | 16
7 | CCNC(=O)O/N=C1/CCCc2c(S(=O)(=O)N(C)CC(O)c3ccc(F)cc3)csc21 (centres unmarked) [Example 83, (7z)-7-({[(Ethylamino)carbonyl]oxo}imino)-3-{[[2-(4-fluorophenyl)-2-hydroxyethyl](methyl)amino]sulfonyl}-4,5,6,7-tetrahydro-1-benzothiophene] | 34
8 | CC(C)C(=NO)c1cc(S(=O)(=O)N(C)CC(O)c2ccc(F)cc2)c(N)s1 (centres unmarked) [Example 64, 2-Amino-5-(1-hydroxyimino-2-methylpropyl)thiophene-3-sulfonic acid[2-(4-fluorophenyl)-2-hydroxyethyl]-methyl-amide] | 40
